# Assay results taken from patent US20130012404A1, “CULTURE METHOD, EVALUATION METHOD AND STORAGE METHOD FOR CANCER-TISSUE-DERIVED CELL MASS OR AGGREGATED CANCER CELL MASS” (Osaka Prefectural Hospital Organization, priority 2010, published 2013).
# What was measured:
# [1] = test system: cell mass derived from the cancer tissue (surgical specimens of human colon cancer, Example 2); test: Drug sensitivity test with 5-FU on cancer tissue-derived cell masses embedded in collagen gel; assay type: cell-based; details: 5-FU 0.01, 0.1, 1, 10 and 100 μg/ml; day 8 after culture vs day 0; FIG. 4
# Protocol: Using 5-FU which is known to inhibit DNA synthesis by binding to a thymidylic acid synthetase involved in the metabolism process necessary for DNA synthesis, a drug sensitivity test on a sample of Example 2 was carried out. The test was carried out by embedding the cell masses (×10 each) derived from the cancer tissue in a collagen gel (CellMatrix type IA (Nitta Gelatin Inc.):5×DMEM (Gibco; 12100-038):buffer solution for gel reconstruction (50 mM NaOH, 260 mM NaHCO3, 200 mM HEPES)=7:2:1), and culturing in 1 cc of STEMPRO serum-free medium (Gibco) for human ES cells in an incubator under the culture conditions of 37° C. and 5% CO2. In addition, 5-FU was applied at a concentration of 0.01 μg/ml, 0.1 μg/ml, 1 μg/ml, 10 μg/ml, and 100 μg/ml, and the states of the cells on days 0 and 8 after culture were compared for evaluation. An increasing rate of the area of the cell mass derived from the cancer tissue was expressed relative to 1 of an increasing rate of the area of the cell mass in the culture without application of a drug.
# [2] = test system: aggregated cancer cell mass; test: Drug sensitivity test with doxorubicin on aggregated cancer cell masses embedded in collagen gel; assay type: cell-based; details: doxorubicin 0.1, 1 and 10 μM; day 8 after culture initiation vs day 0; FIG. 14
# Protocol: Using doxorubicin that is known to exert an antitumor effect by suppressing the biosynthesis of both DNA and RNA as a result of inhibiting the reaction of DNA polymerase, RNA polymerase, and topoisomerase II due to the insertion of doxorubicin between the base pairs of DNA of tumor cells, a drug sensitivity test was carried out by the sample of Example 12. The test was carried out by embedding the aggregated cancer cell mass (×10 each) in collagen gel (CellMatrix type IA (Nitta Gelatin):5×DMEM (Gibco; 12100-038):buffer solution for gel reconstruction (50 mM NaOH, 260 mM NaHCO3, 200 mM HEPES)=7:2:1) and carrying out culture in 1 cc of a STEMPRO human ES cell serum-free medium (Gibco) under the culture conditions of a temperature of 37° C. in 5% CO2 incubator. In addition, doxorubicin was applied at a concentration of 0.1 μM, 1 μM, and 10 μM, and the states on day 0 and on day […] were compared for evaluation. An increasing rate of the area of the aggregated cancer cell mass was relatively expressed when an increasing rate of the area of the cell mass in the culture without application of a drug was determined to be 1.
structure (smiles),measurement,setting,value
O=c1[nH]cc(F)c(=O)[nH]1 [5-FU],proliferation of the cancer cell (increasing rate of the area of the cell mass relative to 1 without drug),[1],concentration-dependently suppressed
COc1cccc2c1C(=O)c1c(O)c3c(c(O)c1C2=O)C[C@@](O)(C(=O)CO)C[C@@H]3O[C@H]1C[C@H](N)[C@H](O)[C@H](C)O1 [doxorubicin],proliferation of the cancer cell (increasing rate of the area of the aggregated cancer cell mass relative to 1 without drug),[2],concentration-dependently suppressed
